In US12649733B2, “3,6-diamino-pyridazin-3-yl derivatives, pharmaceutical compositions containing them and their uses as pro-apoptotic agents” (LES LABORATOIRES SERVIER, priority 2019, dated 2026):

Assays:
Bcl-xL protein = target: T1, Bcl-xL protein (Homo sapiens, UniProt Q07817, N197C); experiment: Fluorescence quenching assay (PUMA peptide displacement); type: binding; conditions: 1 nM protein, 400 nM peptide, 2 hours at 23° C.; KI determined from IC50
T1 construct: (2-197)[N197C]; His-His (two His8 stretches joined by a Gly/Ala/Ser/Thr linker)
T1 sequence (Q07817 2-197 N197C): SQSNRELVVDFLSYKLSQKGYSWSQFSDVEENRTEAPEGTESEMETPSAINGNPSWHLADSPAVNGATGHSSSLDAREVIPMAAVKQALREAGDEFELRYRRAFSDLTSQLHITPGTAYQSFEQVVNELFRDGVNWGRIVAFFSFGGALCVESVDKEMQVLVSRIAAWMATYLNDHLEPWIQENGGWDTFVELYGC
Outline: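 Displacement of a TQ5WS-quencher-labelled PUMA peptide (400 nM) from Cy5-labelled His-tagged Bcl-xL 2-197 N197C (1 nM) raises fluorescence. An 11-point compound dilution was incubated 2 h at 23 °C in HEPES 10 mM, NaCl 150 mM, 0.05% Tween 20, pH 7.4, 5% DMSO. Fluorescence was read at Ex 620/Em 680 nm, and KI was derived from IC50.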

H146 cells = experiment: H146 cell viability, MTT assay; type: cell-based; conditions: Homo sapiens, NCI-H146, 48 h, 48 h exposure
Outline: (§1)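 Cells grown in RPMI 1640 with 10% heat-inactivated FBS at 37° C, 5% CO2, exposed 48 h to nine 3.16-fold serial compound dilutions in triplicate. MTT added for 4 h, SDS/HCl solubilisation overnight, absorbance at 540 nm; IC50 by four-parameter fit.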

MOLT-4 cells = experiment: MOLT-4 cell viability, MTT assay; type: cell-based; conditions: Homo sapiens, MOLT-4, 48 h, 48 h exposure
Outline: as §1

BCLXL = BCLXL (Homo sapiens, UniProt Q07817, V10N/V9A); experiment: AlphaLISA assay (BIM peptide displacement); type: binding; conditions: 20 pM protein, 1 nM peptide
Chain of BCLXL (Q07817 with tags, fused parts or gaps V9A/V10N): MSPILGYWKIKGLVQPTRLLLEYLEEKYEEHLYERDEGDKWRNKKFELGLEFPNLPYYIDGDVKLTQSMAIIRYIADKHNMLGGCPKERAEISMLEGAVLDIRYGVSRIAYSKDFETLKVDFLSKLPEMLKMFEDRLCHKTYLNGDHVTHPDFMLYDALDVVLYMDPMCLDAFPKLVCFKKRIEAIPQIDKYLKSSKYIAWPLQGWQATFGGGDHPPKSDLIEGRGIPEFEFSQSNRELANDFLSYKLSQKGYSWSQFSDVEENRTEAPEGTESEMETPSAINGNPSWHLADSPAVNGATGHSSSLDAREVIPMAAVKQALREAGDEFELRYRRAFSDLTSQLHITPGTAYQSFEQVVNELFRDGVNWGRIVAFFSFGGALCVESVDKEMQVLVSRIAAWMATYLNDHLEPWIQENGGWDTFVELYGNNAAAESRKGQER
Outline: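 Competitive displacement of fluorescein-labelled BIM peptide (1 nM) from biotinylated GST-BCL-XL(2-209) (20 pM) in 10 mM HEPES, 150 mM NaCl, 0.05% Tween 20, pH 7.4, 4% DMSO; 11-point dilutions. Overnight at 23° C with acceptor beads, then donor beads 2 h; Alpha signal at 615 nm.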

Row | Structure (SMILES) | Ki (Bcl-xL protein) [nM] | IC50 (H146 cells) [nM] | IC50 (MOLT-4 cells) [nM] | IC50 (BCLXL) [nM]
1 | CNCC#Cc1ccc(OCCCc2sc(N(CCCCO)c3cc(C)c(Nc4nc5ccccc5s4)nn3)nc2C(=O)O)c(F)c1 [Example 114, 2-({6-[(1,3-Benzothiazol-2-yl)amino]-5-methylpyridazin-3-yl}(4-hydroxybutyl)amino)-5-(3-{2-fluoro-4-[3-(methylamino)prop-1-yn-1-yl]phenoxy}propyl)-1,3-thiazole-4-carboxylic acid] | 0.011 | 1.58 | 3.81 | 0.053
2 | Cc1cc(N(C)c2nc(C(=O)O)c(CC(C)COc3ccc(C#CCN(C)C)cc3F)s2)nnc1Nc1nc2ccccc2s1 (centres unmarked) [Example 116, 2-({6-[(1,3-Benzothiazol-2-yl)amino]-5-methylpyridazin-3-yl}(methyl)amino)-5-(3-{4-[3-(dimethylamino)prop-1-yn-1-yl]-2-fluorophenoxy}-2-methylpropyl)-1,3-thiazole-4-carboxylic acid] | 0.0086 | 19.1 | 3.06 | 0.017
3 | CNCC#Cc1ccc(OCCCc2sc(N(CC(O)CO)c3cc(C)c(Nc4nc5ccccc5s4)nn3)nc2C(=O)O)c(F)c1 (centres unmarked) [Example 117, 2-[[6-(1,3-Benzothiazol-2-ylamino)-5-methyl-pyridazin-3-yl]-(2,3-dihydroxypropyl)amino]-5-[3-[2-fluoro-4-[3-(methylamino)prop-1-ynyl]phenoxy]propyl]thiazole-4-carboxylic acid] | 0.0066 | 49.6 | 486 | 0.0099
4 | CNCC#Cc1ccc(OCCCc2sc(N(CC(CO)OC)c3cc(C)c(Nc4nc5ccccc5s4)nn3)nc2C(=O)O)c(F)c1 (centres unmarked) [Example 118, 2-[[6-(1,3-Benzothiazol-2-ylamino)-5-methyl-pyridazin-3-yl]-(3-hydroxy-2-methoxy-propyl)amino]-5-[3-[2-fluoro-4-[3-(methylamino)prop-1-ynyl]phenoxy]propyl]thiazole-4-carboxylic acid] | 0.033 | 32.6 | 96 | 0.018
5 | Cc1cc(N(CC(O)CO)c2nc(C(=O)O)c(CCCOc3ccc(C#CCN(C)C)cc3F)s2)nnc1Nc1nc2ccccc2s1 (centres unmarked) [Example 122, 2-[[6-(1,3-Benzothiazol-2-ylamino)-5-methyl-pyridazin-3-yl]-(2,3-dihydroxypropyl)amino]-5-[3-[4-[3-(dimethylamino)prop-1-ynyl]-2-fluoro-phenoxy]propyl]thiazole-4-carboxylic acid] | 0.003 | 51.4 | 280 | 0.0098
6 | CNCC#Cc1ccc(OCCCc2sc(N(CCCCCO)c3cc(C)c(Nc4nc5ccccc5s4)nn3)nc2C(=O)O)c(F)c1 [Example 128] | 0.028 | 20.8 | 18.1 | 0.013
7 | Cc1cc(N(CCCC(O)CNCCN2CCCCC2)c2nc(C(=O)O)c(CCCOc3ccc(C#CCN(C)C)cc3F)s2)nnc1Nc1nc2ccccc2s1 (centres unmarked) [Example 173, 2-[[6-(1,3-Benzothiazol-2-ylamino)-5-methyl-pyridazin-3-yl]-[4-hydroxy-5-[2-(1-piperidyl)ethylamino]pentyl]amino]-5-[3-[4-[3-(dimethylamino)prop-1-ynyl]-2-fluoro-phenoxy]propyl]thiazole-4-carboxylic acid] | 0.0033 | 208 | 127 | 0.0079
8 | CNCC#Cc1ccc(OC/C(C)=C/c2sc(N(C)c3cc(C)c(Nc4nc5ccccc5s4)nn3)nc2C(=O)O)c(F)c1 [Example 174, 2-({6-[(1,3-Benzothiazol-2-yl)amino]-5-methylpyridazin-3-yl}(methyl)amino)-5-[(1E)-3-{2-fluoro-4-[3-(methylamino)prop-1-yn-1-yl]phenoxy}-2-methylprop-1-en-1-yl]-1,3-thiazole-4-carboxylic acid] | 0.043 | 12600 | 1660 | 0.6
